Experimental data published in patent US20170107203A1, “HETEROCYCLIC INHIBITORS OF THE SODIUM CHANNEL” (EPIRUS BIOPHARMACEUTICALS, INC., priority 2014, published 2017).

Target: T1, human Nav1.7 (Homo sapiens, UniProt Q15858)
T1 construct: expressed in transfected cells
Assay: Assessment of Nav1.7 activity on PatchXpress (voltage dependence / slow inactivation parameters)
Format: cell-based
Settings: compound at 10 μM, relative to 0.2% DMSO vehicle control; for hNav1.7: Reduction in current at 20 mV (normalized data) Delta Ratio: before/after 30 sec conditioning pulse at 20 mV; for hNav1.7: Shift in voltage dependence of inactivation (mV) Delta Vhalf: PatchXpress
Procedure: The generation of a HEK 293F cell line stably expressing human Nav1.7/Navp1 was achieved by co-transfecting human SCN9A and human SCN1B cDNAs, subcloned into plasmid vectors, utilizing standard transfection techniques. Clones were selected using appropriate selection agents (0.3 mg/mL Zeocin and 0.8 mg/mL Geneticin) and maintained in Dulbecco's Modified Eagle medium, 10% fetal bovine serum, 1% non-essential amino acids to ˜80% confluence at 37° C. in a humidified incubator with 95% atmosphere and 5% CO2.
On the day of each experiment, cells that were grown to 80% confluence in a T75 flask were harvested for use on PatchXpress (Molecular Devices, CA, USA). Following a recovery period at 37° C. in a humidified incubator with 95% atmosphere and 5% CO2 in Dulbecco's Modified Eagle Medium, the media was replaced with an external recording solution containing (in mM): 90 TEACI, 50 NaCl, 1.8 CaCl2, 1 MgCl2, 10 HEPES, 10 glucose, adjusted to pH 7.4 with TEAOH and 300 mOsm with sucrose. The internal recording solution contained (in mM): 129 CsF, 2 MgCl2, 11 EGTA, 10 HEPES, 6 NaCl, 3 Na2ATP adjusted to pH 7.2 with CsOH and 280 mOsm with sucrose. The automated liquid handling facility of PatchXpress dispensed cells and added compound. Modulation of Nav1.7 channels by compounds was assessed by promoting the channels into the inactivated state using a conditioning voltage pulse of variable amplitude, followed by a brief hyperpolarizing pulse with a subsequent depolarized voltage step to measure the current amplitude in the presence and absence of compound. Compounds were assayed at 10 μM. Based upon this Patch express protocol, four electrophysiological parameters were measured relative to a 0.2% DMSO vehicle control (Table 2).

T1 sequence (Q15858 whole entry): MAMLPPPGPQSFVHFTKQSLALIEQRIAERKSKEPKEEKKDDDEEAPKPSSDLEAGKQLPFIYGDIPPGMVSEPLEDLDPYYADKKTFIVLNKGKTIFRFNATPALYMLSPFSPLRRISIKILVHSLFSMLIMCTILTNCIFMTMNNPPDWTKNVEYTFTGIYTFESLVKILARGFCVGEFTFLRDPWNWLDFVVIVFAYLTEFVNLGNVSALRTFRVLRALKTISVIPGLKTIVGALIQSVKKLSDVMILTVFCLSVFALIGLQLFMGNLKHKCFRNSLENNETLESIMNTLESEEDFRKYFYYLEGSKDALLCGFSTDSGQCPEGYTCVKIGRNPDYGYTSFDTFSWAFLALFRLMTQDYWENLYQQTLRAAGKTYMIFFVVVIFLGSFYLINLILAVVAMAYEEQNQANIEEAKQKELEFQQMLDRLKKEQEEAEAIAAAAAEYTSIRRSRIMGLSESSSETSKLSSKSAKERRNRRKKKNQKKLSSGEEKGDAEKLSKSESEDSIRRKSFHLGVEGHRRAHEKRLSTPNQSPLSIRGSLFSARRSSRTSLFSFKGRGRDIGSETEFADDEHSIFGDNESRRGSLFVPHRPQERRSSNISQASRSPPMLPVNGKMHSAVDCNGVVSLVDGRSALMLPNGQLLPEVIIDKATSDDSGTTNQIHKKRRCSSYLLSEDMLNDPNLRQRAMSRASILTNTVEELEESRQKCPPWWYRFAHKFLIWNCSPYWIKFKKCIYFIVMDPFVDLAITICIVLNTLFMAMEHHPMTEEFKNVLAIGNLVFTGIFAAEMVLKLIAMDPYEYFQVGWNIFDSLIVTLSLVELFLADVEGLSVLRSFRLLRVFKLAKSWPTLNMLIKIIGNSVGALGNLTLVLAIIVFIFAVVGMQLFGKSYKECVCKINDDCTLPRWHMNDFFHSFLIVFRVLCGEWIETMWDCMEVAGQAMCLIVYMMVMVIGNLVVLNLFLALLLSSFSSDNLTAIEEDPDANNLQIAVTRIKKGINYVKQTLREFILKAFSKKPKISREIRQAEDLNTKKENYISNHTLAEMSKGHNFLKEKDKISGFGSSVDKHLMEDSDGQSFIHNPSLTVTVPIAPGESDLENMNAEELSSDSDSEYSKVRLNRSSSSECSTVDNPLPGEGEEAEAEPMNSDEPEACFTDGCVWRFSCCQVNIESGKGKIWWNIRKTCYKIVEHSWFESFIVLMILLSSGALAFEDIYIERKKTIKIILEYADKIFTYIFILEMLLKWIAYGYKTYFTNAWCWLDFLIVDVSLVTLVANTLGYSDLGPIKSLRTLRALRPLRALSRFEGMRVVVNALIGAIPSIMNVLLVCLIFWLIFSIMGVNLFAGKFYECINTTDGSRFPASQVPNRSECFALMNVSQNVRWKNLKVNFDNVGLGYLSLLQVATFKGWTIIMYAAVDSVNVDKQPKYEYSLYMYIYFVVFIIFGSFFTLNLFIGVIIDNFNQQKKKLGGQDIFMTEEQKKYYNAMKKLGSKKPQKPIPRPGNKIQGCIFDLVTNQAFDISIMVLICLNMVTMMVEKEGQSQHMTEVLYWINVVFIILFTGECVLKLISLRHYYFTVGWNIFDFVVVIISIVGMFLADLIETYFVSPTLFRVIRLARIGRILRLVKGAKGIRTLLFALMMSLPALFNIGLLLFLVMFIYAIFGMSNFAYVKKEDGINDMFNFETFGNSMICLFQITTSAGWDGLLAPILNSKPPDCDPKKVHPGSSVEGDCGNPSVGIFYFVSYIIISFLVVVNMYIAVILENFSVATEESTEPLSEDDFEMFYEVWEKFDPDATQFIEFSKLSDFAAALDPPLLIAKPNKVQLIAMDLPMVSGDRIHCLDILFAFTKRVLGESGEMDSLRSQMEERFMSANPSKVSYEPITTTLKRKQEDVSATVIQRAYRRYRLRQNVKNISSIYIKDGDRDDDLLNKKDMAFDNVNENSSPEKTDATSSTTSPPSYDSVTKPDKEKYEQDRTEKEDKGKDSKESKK
T1 sequence (Q07699 19-218 partner): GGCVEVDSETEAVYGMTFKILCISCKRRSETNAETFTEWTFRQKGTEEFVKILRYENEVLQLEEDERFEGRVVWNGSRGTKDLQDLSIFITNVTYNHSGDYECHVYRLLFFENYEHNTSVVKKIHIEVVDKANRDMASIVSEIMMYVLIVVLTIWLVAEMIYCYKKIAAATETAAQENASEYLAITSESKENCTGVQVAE

| Compound | hNav1.7: Reduction in current at 20 mV (normalized data) Delta Ratio | hNav1.7: Voltage dependence of activation (mV) VDEP | hNav1.7: Voltage dependence of fast inactivation (mV) VDEP | hNav1.7: Shift in voltage dependence of inactivation (mV) Delta Vhalf |
| --- | --- | --- | --- | --- |
| N[C@@H](Cc1ccccc1)c1nc2cc(C(F)(F)F)cc(C(F)(F)F)c2[nH]1 [Compound 51, (S)-1-(4,6-bis(trifluoromethyl)-1H-benzo[d]imidazol-2-yl)-2-phenylethan-1-amine] | −0.35 | −9.5 mV | −11.5 mV | −20.8 mV |
| NC1(C(=O)NCCOc2cc(C(F)(F)F)cc(C(F)(F)F)c2)CC1 [Compound 21, 1-amino-N-(2-(3,5-bis(trifluoromethyl)phenoxy)ethyl) cyclopropane-1-carboxamide] | 0.00 | −5.20 mV | −10.40 mV | −4.20 mV |
| CC(C)CC(N)C(=O)N[C@H](COc1cc(C(F)(F)F)cc(C(F)(F)F)c1)c1ccccc1 (stereo partly drawn) [Compound 4, 2-amino-N-((S)-2-(3,5-bis(trifluoromethyl)phenoxy)-1-phenylethyl)-4-methylpentanamide] | −0.27 | −5.80 mV | −11.50 mV | −31.10 mV |
| O=C(NCC12CC3CC(CC(C3)C1)C2)[C@H]1CCCN1 [Compound 44, (R)-N-(adamantan-1-ylmethyl)pyrrolidine-2-carboxamide] | −0.11 | −13.20 mV | −6.00 mV | −5.40 mV |
| CC(C)(CN1CCNCC1=O)c1nc2cc(F)cc(F)c2[nH]1 [Compound 70, 1-(2-(4,6-difluoro-1H-benzo[d]imidazol-2-yl)-2-methylpropyl)piperazin-2-one] | −0.08 | −5.3 mV | −5.7 mV | −4.6 mV |
| COC[C@@H]1C(=O)N(Cc2cc(C(F)(F)F)cc(C(F)(F)F)c2)CCN1C(C)=O [Compound 92, (R)-4-acetyl-1-(3,5-bis(trifluoromethyl)benzyl)-3-(methoxymethyl)piperazin-2-one] | 0.01 | −7.1 mV | −3.9 mV | −2.2 mV |
| C[C@@H](NC(=O)[C@H]1CCCN1)c1ccc(OCC(F)(F)F)cn1 [Compound 83, (R)-N-((R)-1-(5-(2,2,2-trifluoroethoxy)pyridin-2-yl)ethyl)pyrrolidine-2-carboxamide] | 0.01 | −3.1 mV | −0.5 mV | −1.5 mV |
| CC(C)(C)OC(=O)N[C@H](Cc1cccc(C(F)(F)F)c1)C(=O)NCc1nc2ccc(-c3ccc(F)c(Cl)c3)cc2[nH]1 [Compound 76, tert-butyl (R)-(1-(((6-(3-chloro-4-fluorophenyl)-1H-benzo[d]imidazol-2-yl)methyl)amino)-1-oxo-3-(3-(trifluoromethyl)phenyl)propan-2-yl)carbamate] | −0.06 | −11.4 mV | −3.9 mV | −0.3 mV |
| O=C(NCCc1c[nH]c2ccc(F)cc12)[C@@H]1CCCN1 [Compound 48, (S)-N-(2-(5-fluoro-1H-indol-3-yl)ethyl)pyrrolidine-2-carboxamide] | −0.01 | −4.80 mV | −3.00 mV | −1.80 mV |
| O=C(Cc1nc2cc(F)cc(F)c2[nH]1)NC1CCNCC1 [Compound 89, 2-(4,6-difluoro-1H-benzo[d]imidazol-2-yl)-N-(piperidin-4-yl)acetamide] | −0.01 | −10.6 mV | −4.4 mV | −3.6 mV |
| O=C(NC[C@H]1CCCN1)Nc1cc(C(F)(F)F)cc(C(F)(F)F)c1 [Compound 49, (R)-1-(3,5-bis(trifluoromethyl)phenyl)-3-(pyrrolidin-2-ylmethyl)urea] | −0.18 | −10.20 mV | −7.80 mV | −6.40 mV |
| O=C1NC(=O)C(c2cc(C(F)(F)F)cc(C(F)(F)F)c2)N1 (centres unmarked) [Compound 41, 5-(3,5-bis(trifluoromethyl)phenyl) imidazolidine-2,4-dione] | 0.00 | −9.00 mV | −5.30 mV | −2.80 mV |
| NC[C@@H]1Nc2c(cc(C(F)(F)F)cc2C(F)(F)F)NC1=O [Compound 40, (S)-3-(aminomethyl)-5,7-bis(trifluoromethyl)-3,4-dihydroquinoxalin-2(1H)-one] | −0.02 | −6.60 mV | −2.60 mV | −3.90 mV |
| CC(C)(C)OC(=O)N[C@H](Cc1cccc(C(F)(F)F)c1)C(=O)NCc1nc2ccc(Br)cc2[nH]1 [Compound 72, tert-butyl (R)-(1-(((6-bromo-1H-benzo[d]imidazol-2-yl)methyl)amino)-1-oxo-3-(3-(trifluoromethyl)phenyl)propan-2-yl)carbamate] | −0.07 | −3.3 mV | −7.3 mV | −6.7 mV |
| N[C@H](C(=O)NCCOc1cc(C(F)(F)F)cc(C(F)(F)F)c1)c1ccccc1 [Compound 9, (S)-2-amino-N-(2-(3,5-bis(trifluoromethyl)phenoxy)ethyl)-2-phenylacetamide] | −0.21 | −8.10 mV | −7.90 mV | −18.30 mV |
| CC(C)(c1nc2cc(C(F)(F)F)cc(C(F)(F)F)c2[nH]1)N1CCNCC1=O [Compound 60, 1-(2-(4,6-bis(trifluoromethyl)-1H-benzo[d]imidazol-2-yl)propan-2-yl)piperazin-2-one] | −0.19 | −8.3 mV | −3.8 mV | −9.2 mV |
| O=C(NCCOc1cc(F)cc(C(F)(F)F)c1)[C@@H]1CCCN1 [Compound 22, (S)-N-(2-(3-fluoro-5-(trifluoromethyl)phenoxy)ethyl) pyrrolidine-2-carboxamide] | 0.06 | −6.50 mV | −1.80 mV | −7.00 mV |
| N[C@H](Cc1cccc(C(F)(F)F)c1)C(=O)NCc1nc2c(C(F)(F)F)cc(C(F)(F)F)cc2[nH]1 [Compound 75, (R)-2-amino-N-((4,6-bis(trifluoromethyl)-1H-benzo[d]imidazol-2-yl)methyl)-3-(3-(trifluoromethyl)phenyl)propanamide] | −0.06 | −15.4 mV | −3.7 mV | −2.3 mV |
| CC[C@H](C)[C@H](N)C(=O)NCCOc1cc(C(F)(F)F)cc(C(F)(F)F)c1 [Compound 7, (2S,3S)-2-amino-N-(2-(3,5-bis(trifluoromethyl)phenoxy)ethyl)-3-methylpentanamide] | −0.24 | −8.10 mV | −6.60 mV | −21.40 mV |
| Cc1cccc(C)c1OCC(C)NC(=O)[C@@H]1CCCN1 (stereo partly drawn) [Compound 15, (2S)-N-(1-(2,6-dimethylphenoxy)propan-2-yl)pyrrolidine-2-carboxamide] | −0.16 | −6.00 mV | −4.90 mV | −20.60 mV |
